Test results reported in patent US6121241A, “Anticoagulant peptide aldehyde derivatives” (Gyogyszerkutato Intezet Kft., priority 1996, dated 2000).
Where a name gives a salt, the structure may show the parent alone. Read-outs that look alike come from different tables or passages of the source. Values belong to the compound of their own block, whether it stands above or below them. Square brackets hold non-standard residues; d marks the D form. Peptide text beside a SMILES is read from it. * marks the point of attachment. 1Nal = N[C@@H](Cc1cccc2ccccc12)C(=O)O; Boc = CC(C)(C)OC(=O)*

How the values were obtained:
fXa = fXa (Homo sapiens, UniProt P00742); details: Z-D-Arg-Gly-Arg-pNA substrate; according to the literature; read-out: IC50, amidolytic activity of fXa; cited from earlier work
human factor Xa = target: T1, human factor Xa (Homo sapiens, UniProt P00742); assay: Inhibition of the amidolytic effect of factor Xa in solution on Bz-Ile-Glu-Gly-Arg-pNA (method M6); assay type: biochemical
T1 construct: purchased SIGMA
Description: (§1) Anticoagutant activity (i.e. inhibition of the proteolytic reactions in the process) is measured by anticoagulant tests, e.g. by the thrombin time (TT), activated partial thromboplastin time (APTT) and prothrombin time (PT) tests [E. J. W. Bovie et al; Mayo Clinic Laboratory Manual of Hemostasis; W. B. Sanuders Co., Philadelphia (1971)]. Plasma, inhibited in spontaneous coagulation, e.g. citrate-plasma, is made to coagulate and the required coagulation time is measured. Upon the action of anticoagulants the coagulation time is prolonged proportionally to the inhibition of the reaction(s) in the process. The anticoagulant effect can be characterized by the substance concentration required to double the coagulation time compared to the control (IC50). The effect of anticoagulants on individual coagulant proteases is measured by the amidolytic method [R. Lottenberg et al., Methods in Enzymol. 80, 341 (1981); G. Cleason, Blood Coagulation and Fibrinolysis 5, 411 (1994)]. The isolated active factor (e.g. thrombin, fXa) and its chromogen or fluorogen peptide-amide substrate are reacted in the presence or absence of the inhibitor, resp. The enzyme inhibiting action is characterized by the inhibitory constant (IC50) measured during amidolysis.
(§2) The in vitro anticoagulant effect of the compounds of general formula (I) was measured by the prothrombin time (PT), activated partial thromboplastin time (APTT) and thrombin time (TT) tests [D. Bagdy et at., Thromb. Haemost. 67, 325 (1992)]. The Xa-factor-inhibiting effect of the compounds was also determined by using the Bz-Ile-Glu-Gly-Arg-pNA chromogen substrate (see method M6).
Assay of the Inhibition of Factor Xa in Solution on a 96-well Microtiter Plate
a) 1.3 U/mL factor Xa (human, SIGMA), 0.1-1.0-10 and 100 μg/mL solutions in phosphate buffer (0.1 M sodium phosphate and 0.05 M sodium chloride, pH 7.4) of the peptide inhibitors and […] solutions of the substrate Bz-Ile-Glu-Gly-Arg-pNA in distilled water are used.
b) Three reaction mixtures are prepared from the control and each peptide solution. 30 μL each of the peptide and the buffer, serving as control, 30 μL factor Xa, 90 μL butter and 150 μL substrate are placed in the wells of the plate, then after 10 minutes the extinction values are read at 405 nm The procedure is continued as described in Method M2, point c).

[1] = test system: citrate plasma coagulation (PT); assay: Prothrombin time (PT) plasma clotting test; assay type: biochemical; details: concentration doubling clotting time
Description: as §1
(§3) In the TT test coagulation is initiated by the thrombin added to the citrate plasma. In the system 22 pmol/mL of thrombin is functioning and in the presence of plasma components its inhibition can be measured on the fibrinogen (one of the natural substrates of thrombin) present In the APTT and PT tests the full coagulation process is made to proceed. Depending on the activator fX is activated by the extrinsic or intrinsic pathway. The generated fXa activates prothrombin to thrombin which, in turn, triggers plasma coagulation. In the test the coagulation time is prolonged if the enzymes or one of them is inhibited by the inhibitor. In the APTT and PT tests at most 40 pmole/ml Xa is generated (this is the full amount of factor X present in both systems) while 150 pmole/ml (APTT) and 350 pmole/ml (PT) are generated from thrombin [B Kaiser et al., Thromb. Res. 65, 157 (1992)].
as §2

thrombin [2] = target: T2, thrombin (Homo sapiens, UniProt P00734); assay: Thrombin time (TT) plasma clotting test; assay type: biochemical; details: concentration doubling clotting time
T2 construct: The isolated active factor (e.g. thrombin, fXa) and its chromogen or fluorogen peptide-amide substrate are reacted
Description: as §1, §3, §2

[3] = test system: citrate plasma coagulation (APTT); assay: Activated partial thromboplastin time (APTT) plasma clotting test; assay type: biochemical; details: concentration doubling clotting time
Description: as §1, §3, §2

[4] = target: T3, fibrin-gel bound thrombin (Homo sapiens, UniProt P00734); assay: Inhibition of thrombin bound to fibrin-gel (methods M4, M5); assay type: biochemical; details: Tos-Gly-Pro-Arg-pNA substrate
T3 construct: Here prothrombin is converted to thrombin; purchased SIGMA
Description: (§4) The plasma clot was obtained by the recalcification of platelet-rich human citrate plasma and fibrin gel by the coagulation of human fibrinogen with human thrombin Z-D-Arg-Gly-Arg-pNA and Tos Gly-Pro-Arg-pNA were used as substrates for measuring the activity of factor Xa and thrombin (methods M1-M5).
Preparation of Fibrin-Gel
a) 200 μL of 6 mg/mL human fibrinogen (SIGMA), 25 μL of 25 NIH U/mL human thrombin (SIGMA) and 40 μL of 100 mM calcium chloride solution are placed in each reaction vessel and the mixtures are stored for one hour at 20-22° C. The fibrin formed is rinsed mildly with 3×2 ml of isotonic saline solution followed by sedimentation to remove the thrombin content of the solution. The efficacy of rinsing is controlled by the process described in Method M1, point c).
Assay of the Inhibition of Thrombin Bound to Fibrin-Gel
a) 0.1-1.0-10 and 100 μg/ml solutions are prepared with Hepes/NaCl buffer (0.01 M Hepes and 0.1 M sodium chloride, pH=7.4).
b) Thereafter the procedure described in Method M3, point b) is followed.

[5] = target: T4, plasma clot entrapped thrombin (Homo sapiens, UniProt P00734); assay: Inhibition of thrombin entrapped in plasma clot (methods M1, M3); assay type: biochemical; details: platelet-rich human plasma clot; Tos-Gly-Pro-Arg-pNA substrate
T4 construct: Here prothrombin is converted to thrombin; from tissue; host or cells: clot of recalcified platelet-rich human citrate plasma
Description: as §4
Preparation of Plasma Clot
a) Platelet-rich plasma (PRP) is prepared by centrifuging a 9:1 mixture of human blood and 3.8% aqueous sodium citrate solution (1/2) for 5 minutes at 240×g.
b) 200 μL of PRP are placed in each reaction vessel, 80 μL of 40 mM calcium chloride solution is added and the mixture is left to stand at room temperature for one hour. The plasma clot formed is rinsed mildly with 6×2 ml of 0.9% sodium chloride solution followed by 5 minute sedimentation to remove the dissolved enzymes (factor Xa and thrombin). The thrombin content of the washings is assayed as follows.
c) To 400 μL of washing liquid 100 μL of 1 mM Tos-Gly-Pro-Arg-pNA substrate solution is added and the mixture is incubated for 30 minutes at 37° C., then the reaction is stopped by the addition of 100 μL of 50% acetic acid. 150 μL portions of this mixture are transferred into the wells of the 96-well microtiter plate and the extinction is measured at 405 nm (ELISA READER SLT Laborinstrument GmbH, Austria). When the washing is successful, the extinction is less than 5% of the control
Assay of the Inhibition of Thrombin Entrapped in Plasma Clot
a) Peptide inhibitor solutions are prepared by the process described in Method M2, point a).
b) After draining the washing liquid, 400 μL of the peptide solution (3 parallel samples for each concentration) and 400 μL of buffer, serving as control, are placed on the clot (Method M1) and the mixture is incubated for 5 minutes at 37° C. Thereafter 100 μL of […] Tos-Gly-Pro-Arg-pNA substrate solution is added and incubation at 37° C. is continued for further 30 minutes, then the reaction is stopped by the addition of 100 μL of 50% acetic acid. The operation is continued as described in Method M2, point c).

urokinase (UK) = urokinase (UK) (Homo sapiens, UniProt P00749); assay: Fibrin-plate method, plasmin formation induced by urokinase; assay type: biochemical; details: for IC50: fibrin-plate method, hydrolyzed area reduced by 50%
From the text: (§5) The inhibitory effect of the new compounds of the invention on plasmin (PL) as well as on plasmin formation induced by tissue plasminagen activator (tPA) and urokinase (UK) was studied by the […] [D. Bagdy et al.; Thromb. Haemost. 67, 325 (1992)]. Compounds C1 and C3 served as controls. […] V. Jackson et al., J. Cardiovasc. Pharmacol. 21, 587 (1993)].
(§6) ^a IC50 = peptide concentration (mM) where the hydrolyzed area o
(§7) the fibrin plate is reduced by 50% compared to the control

plasmin (PL) = plasmin (PL) (Homo sapiens, UniProt P00747); assay: Fibrin-plate method, plasmin; assay type: biochemical; details: for IC50: fibrin-plate method, hydrolyzed area reduced by 50%
From the text: as §5, §6, §7

[6] = target: tissue plasminogen activator (tPA) (Homo sapiens, UniProt P00750); assay: Fibrin-plate method, plasmin formation induced by tPA; assay type: biochemical; details: for IC50: fibrin-plate method, hydrolyzed area reduced by 50%
From the text: as §5, §6, §7

thrombin [7] = target: T2, thrombin; details: specific fXa inhibitors, literature; cited from earlier work
[8] = test system: citrate plasma coagulation (PT); details: Table 1; published value; read-out: B: IC50, PT; cited from earlier work
[9] = test system: citrate plasma coagulation (APTT); details: Table 1; published value; read-out: B: IC50, APTT; cited from earlier work
[10] = Table 1, Bz-Ile-Glu-Gly-Arg-pNA chromogen substrate, read-out: A: IC50 (fXa inhibiting effect)
[11] = Table 1, read-out: B: IC50, APTT
[12] = Table 2, Bz-Ile-Glu-Gly-Arg-pNA, isolated human factor Xa, read-out: B: IC50 (factor Xa inhibiting effect)
[13] = Table 2, read-out: A: IC50, APTT
[14] = related to the activity of C1 (1/IC50 = 1)

T1 sequence (P00742 235-488 limits assumed): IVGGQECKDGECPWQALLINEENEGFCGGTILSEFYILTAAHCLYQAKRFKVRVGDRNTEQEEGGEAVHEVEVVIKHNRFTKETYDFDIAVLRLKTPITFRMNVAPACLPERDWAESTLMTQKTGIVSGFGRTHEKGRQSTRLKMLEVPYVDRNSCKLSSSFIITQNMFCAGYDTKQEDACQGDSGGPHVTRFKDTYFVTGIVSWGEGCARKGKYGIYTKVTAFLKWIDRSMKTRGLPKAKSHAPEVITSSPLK
T1 sequence (P00742 41-179 partner limits assumed): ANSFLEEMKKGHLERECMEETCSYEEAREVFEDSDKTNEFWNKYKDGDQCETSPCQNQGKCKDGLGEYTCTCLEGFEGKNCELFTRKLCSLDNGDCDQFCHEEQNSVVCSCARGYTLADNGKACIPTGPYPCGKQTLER
Chain of plasmin (PL) (P00747 581-810 limits assumed, species assumed): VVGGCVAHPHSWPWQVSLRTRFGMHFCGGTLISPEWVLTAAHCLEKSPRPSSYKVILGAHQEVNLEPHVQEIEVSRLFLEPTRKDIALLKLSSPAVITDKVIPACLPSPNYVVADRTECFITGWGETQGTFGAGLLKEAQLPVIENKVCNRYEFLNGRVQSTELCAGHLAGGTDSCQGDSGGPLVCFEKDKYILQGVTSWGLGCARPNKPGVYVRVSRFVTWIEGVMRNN
Chain of plasmin (PL) (P00747 97-580 partner limits assumed, species assumed): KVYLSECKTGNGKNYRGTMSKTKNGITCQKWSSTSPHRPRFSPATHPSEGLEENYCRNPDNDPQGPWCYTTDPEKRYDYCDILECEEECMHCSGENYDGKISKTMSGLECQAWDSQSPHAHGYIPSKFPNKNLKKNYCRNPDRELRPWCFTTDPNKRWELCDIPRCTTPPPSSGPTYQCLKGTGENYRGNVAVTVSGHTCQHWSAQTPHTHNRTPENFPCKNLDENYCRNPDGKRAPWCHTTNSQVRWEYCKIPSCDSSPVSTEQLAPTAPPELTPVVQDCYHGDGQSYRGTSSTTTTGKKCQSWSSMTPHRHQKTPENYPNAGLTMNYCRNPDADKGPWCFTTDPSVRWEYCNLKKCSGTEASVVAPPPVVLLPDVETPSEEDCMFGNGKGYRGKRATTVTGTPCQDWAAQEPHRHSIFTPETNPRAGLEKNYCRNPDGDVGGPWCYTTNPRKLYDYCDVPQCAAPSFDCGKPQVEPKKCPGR
Chain of tissue plasminogen activator (tPA) (P00750 36-562, species assumed): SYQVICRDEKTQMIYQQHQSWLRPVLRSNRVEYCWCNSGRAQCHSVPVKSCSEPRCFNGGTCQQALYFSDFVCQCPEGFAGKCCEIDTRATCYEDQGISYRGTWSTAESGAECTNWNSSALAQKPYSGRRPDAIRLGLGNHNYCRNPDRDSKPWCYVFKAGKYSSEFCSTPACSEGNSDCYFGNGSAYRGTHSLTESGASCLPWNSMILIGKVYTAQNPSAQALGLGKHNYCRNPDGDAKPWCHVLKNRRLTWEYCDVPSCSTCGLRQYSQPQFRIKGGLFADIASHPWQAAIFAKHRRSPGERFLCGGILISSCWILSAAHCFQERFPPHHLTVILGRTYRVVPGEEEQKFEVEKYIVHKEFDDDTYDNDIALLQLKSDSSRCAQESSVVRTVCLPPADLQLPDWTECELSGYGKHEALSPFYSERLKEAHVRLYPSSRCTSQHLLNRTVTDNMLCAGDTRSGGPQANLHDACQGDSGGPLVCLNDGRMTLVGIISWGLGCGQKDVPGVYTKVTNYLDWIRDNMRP
Chain of fXa (P00742 235-488 limits assumed): as the sequence (P00742 235-488 limits assumed) above
Chain of fXa (P00742 41-179 partner limits assumed): as the sequence (P00742 41-179 partner limits assumed) above

- IC50 (human factor Xa; [10]): 86 nM
- IC50 ([1]; Table 1, read-out: B: IC50, PT): 53600 nM
- IC50 (thrombin [2]; Table 1, read-out: B: IC50, TT): 17200 nM
- IC50 [3, 11]: 9960 nM
Compound: CC(C)(C)OC(=O)N[C@H](Cc1ccccc1)C(=O)N[C@@H](Cc1cccc2ccccc12)C(=O)N[C@H](C=O)CCCN=C(N)N [Compound C4, Boc-D-Phe-Nal(1)-Arg-H] (Boc-[dF]-[1Nal]-Arg-aldehyde)
- IC50 (fXa): 30 nM

- IC50 [4]: 220 nM
- IC50 [5]: 270 nM
- IC50 (human factor Xa; [12]): 247 nM
- IC50 ([1]; Table 2, read-out: A: IC50, PT): 2140 nM
- IC50 (thrombin [2]; Table 2, read-out: A: IC50, TT): 220 nM
- IC50 [3, 13]: 790 nM
Compound: NC(N)=NCCC[C@@H](C=O)NC(=O)[C@@H]1CCCN1C(=O)[C@H](O)C1CCCCC1 [Compound C5, D-Hma-Pro-Arg-H]

- IC50 (urokinase (UK)): 3000 nM
- B: relative efficacy, UK (urokinase (UK); [14]): 27.3
- IC50 (plasmin (PL)): 12000 nM
- B: relative efficacy, PL (plasmin (PL); [14]): 4.5
- IC50 [6]: 6000 nM
- B: relative efficacy, tPA [6, 14]: 22.0
Compound: CC(C)(C)OC(=O)N[C@H](Cc1ccccc1)C(=O)N1CCC[C@H]1C(=O)N[C@H](C=O)CCCNC(=N)N [Boc-D-Phe-Pro-Arg-H]

Compound: TAP: 60-member polypeptide isolated from tick, fXa inhibitor (YNRLCIKPRDWIDECDSNEGGERAYFRNGKGGCDSFWICPEDHTGADYYSSYRDCFNACI; UniProt P17726 1-60, looked up)
- activity in the TT test (thrombin [7]): fail to exert any activity

Compound: N=C(N)NCCC[C@@H](C=O)NC(=O)[C@H]1CCCN1C(=O)C(O)C1CCCC1.N=C(N)NCCC[C@@H](C=O)NC(=O)[C@H]1CCCN1C(=O)C(O)C1CCCC1.O=S(=O)(O)O (stereo partly drawn) [Compound 2, D-2-Cyclopentyl-2-hydroxyacetyl-L-prolyl-L-arginine aldehyde hemisulfate]
- B: relative efficacy, UK (urokinase (UK)): 0.6
- IC50 (urokinase (UK)): 137000 nM
- times lower activity than compound C3, third enzyme (UK) (urokinase (UK); versus C3 of Table 4): 39
- B: relative efficacy, PL (plasmin (PL)): 0.13
- IC50 (plasmin (PL)): 390000 nM
- times lower activity than compound C3, first enzyme (PL) (plasmin (PL); versus C3 of Table 4): 7.5
- IC50 (human factor Xa; [12]): 107 nM
- B: relative efficacy, tPA [6]: 1.2
- IC50 [6]: 112000 nM
- times lower activity than compound C3, second enzyme (tPA) ([6]; versus C3 of Table 4): 12
- IC50 ([1]; Table 2, read-out: A: IC50, PT): 2030 nM
- IC50 (thrombin [2]; Table 2, read-out: A: IC50, TT): 100 nM
- IC50 [3, 13]: 710 nM

Compound: CC(=N)N1CC[C@H](Oc2ccc([C@H](Cc3ccc4ccc(C(=N)N)cc4c3)C(=O)O)cc2)C1 [Compound C2, (+)-(2S)-2-[4[[(3S)-1-acetimidoyl-3-pyrrolidinyl]oxy]phenyl]-3-[7[amidino-2-naphthyl]-propionic acid hydrochloride pentahydrate]
- activity in the TT test (thrombin [7]): fail to exert any activity
- IC50 [8]: 520 nM
- IC50 [9]: 970 nM

- IC50 (human factor Xa; [10]): 64 nM
- IC50 ([1]; Table 1, read-out: B: IC50, PT): 19300 nM
- IC50 (thrombin [2]; Table 1, read-out: B: IC50, TT): 870 nM
- IC50 [3, 11]: 4590 nM
Compound: 4-MeP-Asp-Pro-Arg-H [Compound C3]
- IC50 (fXa): 57 nM
